The values below come from patent US20260022142A1, “MACROCYCLIC IMMUNOMODULATORS” (Bristol-Myers Squibb Company, priority 2022, published 2026).

Molecules are shown by their SMILES. Numbered stars: 1 amine (or outer) side, 2 acyl side, 3 side chain; on linkers, the order of the positions; unused ones are H or OH. Bridge positions count the residues as written; N and C are the ends. Square brackets hold non-standard residues; d marks the D form. Peptide text beside a SMILES is read from it. * marks the point of attachment. ξ: configuration not given here. Phe(4-COOH) = N[C@@H](Cc1ccc(C(=O)O)cc1)C(=O)O; X9 = O=C([C@H](Cc1cc(F)c(F)cc1F)N[*:1])[*:2]; Bip = N[C@@H](Cc1ccc(-c2ccccc2)cc1)C(=O)O; Morpholine(3S-CO) = O=C(O)[C@@H]1COCCN1; Pip(4-aza) = O=C(O)[C@@H]1CNCCN1; 4Pal = N[C@@H](Cc1ccncc1)C(=O)O; X1 = O=C(CN1CCN([*:1])CC1)[*:2]; Cha = N[C@@H](CC1CCCCC1)C(=O)O; Cit = NC(=O)NCCC[C@H](N)C(=O)O; Thr(3ξ) = CC(O)[C@H](N)C(=O)O; 3Abz = Nc1cccc(C(=O)O)c1; 4Abz = Nc1ccc(C(=O)O)cc1; Carboxymethyl = O=C(O)C*; Orn = NCCC[C@H](N)C(=O)O; Pra = C#CC[C@H](N)C(=O)O; Aun = NCCCCCCCCCCC(=O)O; Dab = NCC[C@H](N)C(=O)O; Dap = NC[C@H](N)C(=O)O; AEEA = NCCOCCOCC(=O)O

What is called IC50 is the concentration at which inhibition is half-maximal.

For the first assay, the target named is T1, PD-1/PD-L1 interaction (PE-labeled human PD-L1-Ig binding to Jurkat cell line over-expressing human PD-1) (Homo sapiens, UniProt Q15116).
T1 construct: expressed in transfected cells; host or cells: Jurkat
T1 sequence (Q15116 25-288): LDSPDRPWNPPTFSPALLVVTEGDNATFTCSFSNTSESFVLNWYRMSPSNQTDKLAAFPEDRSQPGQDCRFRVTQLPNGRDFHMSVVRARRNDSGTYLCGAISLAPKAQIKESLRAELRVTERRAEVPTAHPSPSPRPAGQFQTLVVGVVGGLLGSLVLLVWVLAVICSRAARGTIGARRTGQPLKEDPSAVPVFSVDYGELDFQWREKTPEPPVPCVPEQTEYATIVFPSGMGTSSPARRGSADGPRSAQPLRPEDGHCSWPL
In words: Jurkat-PD-1 Cell Binding High-Content Screening Assay (CBA). The format is cell-based. Conditions: Jurkat cell line over-expressing human PD-1; PE-labeled PD-L1-Ig 20 nM final; read-out: Jurkat hPD1-PDL1 IC50. The method in brief:
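Binding of fluorescent PD-L1-Ig (phycoerythrin on Ig tag, 20 nM final, 1 h) measured by high-content imaging of fixed, Hoechst-counterstained Jurkat-hPD-1 cells. Compound added 2 h at 37° C beforehand, in DMEM with 10% fetal calf serum.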
As to `C#CC[C@H](NC(=O)COCCOCCNC(=O)[C@@H]1CSCC(=O)N[C@@H](Cc2ccncc2)C(=O)N[C@@H](Cc2ccc(OCC(=O)O)cc2)C(=O)N[C@@H](CC(=O)O)C(=O)N[C@@H](Cc2c[nH]c3ccccc23)C(=O)N[C@@H](C(C)C)C(=O)N[C@@H](Cc2ccc(-c3ccccc3)cc2)C(=O)N[C@@H]([C@@H](C)CC)C(=O)N[C@@H](CCCN)C(=O)N[C@H](CC(C)C)C(=O)N[C@@H](CCN)C(=O)N[C@@H](CC(C)C)C(=O)N[C@@H](C(C)C)C(=O)N[C@@H]([C@@H](C)O)C(=O)N1)C(=O)N[C@@H](CCCN)C(=O)NCCCCCCCCCCC(=O)O` [Compound 1213] ({CH2CO}-[4Pal]Y(Carboxymethyl)DWV[Bip]I[Orn][dL][Dab]LVTC[AEEA][Pra][Orn][Aun]-OH; thioether N-14), the IC50 amounted to 32.8 nM.

Regarding `C#CC[C@H](NC(=O)COCCOCCNC(=O)[C@@H]1CSCC(=O)N[C@@H](Cc2ccncc2)C(=O)N[C@@H](Cc2ccc(OCC(=O)O)cc2)C(=O)N[C@@H](CC(=O)O)C(=O)N[C@@H](Cc2c[nH]c3ccccc23)C(=O)N[C@@H](C(C)C)C(=O)N[C@@H](Cc2ccc(-c3ccccc3)cc2)C(=O)N[C@@H]([C@@H](C)CC)C(=O)N[C@@H](CCCN)C(=O)N[C@H](CC(C)C)C(=O)N[C@@H](CCN)C(=O)N[C@@H](CC(C)C)C(=O)N[C@@H](C(C)C)C(=O)N[C@@H]([C@@H](C)O)C(=O)N1)C(=O)N[C@@H](CCCCN)C(=O)NCCCCCCCCCCC(=O)O` [Compound 1214] ({CH2CO}-[4Pal]Y(Carboxymethyl)DWV[Bip]I[Orn][dL][Dab]LVTC[AEEA][Pra]K[Aun]-OH; thioether N-14), the IC50 amounted to 13.7 nM.

In the case of `C#CC[C@H](NC(=O)COCCOCCNC(=O)[C@@H]1CSCC(=O)N[C@@H](Cc2ccncc2)C(=O)N[C@@H](Cc2ccc(OCC(=O)O)cc2)C(=O)N[C@@H](CC(=O)O)C(=O)N[C@@H](Cc2c[nH]c3ccccc23)C(=O)N[C@@H](C(C)C)C(=O)N[C@@H](Cc2ccc(-c3ccccc3)cc2)C(=O)N[C@@H]([C@@H](C)CC)C(=O)N[C@@H](CCCN)C(=O)N[C@H](CC(C)C)C(=O)N[C@@H](CCN)C(=O)N[C@@H](CC(C)C)C(=O)N[C@@H](C(C)C)C(=O)N[C@@H]([C@@H](C)O)C(=O)N1)C(=O)N[C@@H](CCCNC(=N)N)C(=O)NCCCCCCCCCCC(=O)O` [Compound 1215] ({CH2CO}-[4Pal]Y(Carboxymethyl)DWV[Bip]I[Orn][dL][Dab]LVTC[AEEA][Pra]R[Aun]-OH; thioether N-14), the IC50 was found to be 13.8 nM.

Consider `C#CC[C@H](NC(=O)COCCOCCNC(=O)[C@@H]1CSCC(=O)N[C@@H](Cc2ccncc2)C(=O)N[C@@H](Cc2ccc(OCC(=O)O)cc2)C(=O)N[C@@H](CC(=O)O)C(=O)N[C@@H](Cc2c[nH]c3ccccc23)C(=O)N[C@@H](C(C)C)C(=O)N[C@@H](Cc2ccc(-c3ccccc3)cc2)C(=O)N[C@@H]([C@@H](C)CC)C(=O)N[C@@H](CCCN)C(=O)N[C@H](CC(C)C)C(=O)N[C@@H](CCN)C(=O)N[C@@H](CC(C)C)C(=O)N[C@@H](C(C)C)C(=O)N[C@@H]([C@@H](C)O)C(=O)N1)C(=O)N[C@@H](Cc1cnc[nH]1)C(=O)NCCCCCCCCCCC(=O)O` [Compound 1216] ({CH2CO}-[4Pal]Y(Carboxymethyl)DWV[Bip]I[Orn][dL][Dab]LVTC[AEEA][Pra]H[Aun]-OH; thioether N-14), for which the IC50 was found to be 16.5 nM.

As for `CC(C)C[C@@H]1NC(=O)[C@H](Cc2c[nH]c3ccccc23)NC(=O)[C@H](CC(=O)O)NC(=O)[C@H](Cc2ccncc2)NC(=O)[C@H](Cc2ccc(OCC(=O)O)cc2)NC(=O)CSC[C@@H](C(=O)N2CCNC[C@H]2C(=O)NCCCCCCCCCCC(=O)O)NC(=O)[C@H](C(C)O)NC(=O)[C@H](C(C)C)NC(=O)[C@H](CC2CCCCC2)NC(=O)[C@H](CCN)NC(=O)[C@@H](CC(C)C)NC(=O)[C@H](CCCN)NC(=O)[C@H](C(C)C)NC(=O)[C@H](Cc2ccc(-c3ccccc3)cc2)NC1=O` (stereo partly drawn) [Compound 1223] ({CH2CO}-Y(Carboxymethyl)[4Pal]DWL[Bip]V[Orn][dL][Dab][Cha]V[Thr(3ξ)]C[Pip(4-aza)][Aun]-OH; thioether N-14), the IC50 came to 135 nM.

For `CC(C)C[C@H]1NC(=O)[C@H](CCCN)NC(=O)[C@H](Cc2ccc(O)cc2)NC(=O)[C@H](Cc2ccc(-c3ccccc3)cc2)NC(=O)[C@H](Cc2ccc(OCC(=O)O)cc2)NC(=O)[C@H](Cc2cc(F)c(F)cc2F)NC(=O)[C@H](CC(=O)O)NC(=O)[C@H](Cc2ccc(OCC(=O)O)cc2)NC(=O)[C@H](CN)NC(=O)CSC[C@@H](C(=O)N[C@@H](CCN)C(=O)NCCOCCOCC(=O)NCCCCCCCCCCC(=O)O)NC(=O)[C@H](CCCN)NC(=O)[C@H](C(C)C)NC(=O)[C@H](CC2CCCCC2)NC(=O)[C@H](CCN)NC1=O` [Compound 1224] ({CH2CO}-[Dap]Y(Carboxymethyl)D[X9]Y(Carboxymethyl)[Bip]Y[Orn][dL][Dab][Cha]V[Orn]C[Dab][AEEA][Aun]-OH; thioether N-14), the half-maximal inhibitory concentration (IC50) is 141 nM.

As to `CC(C)C[C@@H]1NC(=O)[C@H](Cc2c[nH]c3ccccc23)NC(=O)[C@H](CC(=O)O)NC(=O)[C@H](Cc2ccncc2)NC(=O)[C@H](Cc2ccc(OCC(=O)O)cc2)NC(=O)CSC[C@@H](C(=O)N2CCN(CC(=O)NCCCCCCCCCCC(=O)O)CC2)NC(=O)[C@H](C(C)O)NC(=O)[C@H](C(C)C)NC(=O)[C@H](CC2CCCCC2)NC(=O)[C@H](CCN)NC(=O)[C@@H](CC(C)C)NC(=O)[C@H](CCCN)NC(=O)[C@H](C(C)C)NC(=O)[C@H](Cc2ccc(-c3ccccc3)cc2)NC1=O` (stereo partly drawn) [Compound 1225] ({CH2CO}-Y(Carboxymethyl)[4Pal]DWL[Bip]V[Orn][dL][Dab][Cha]V[Thr(3ξ)]C[X1][Aun]-OH; thioether N-14), the IC50 turned out to be 171 nM.

In the case of `CC(C)C[C@@H]1NC(=O)[C@H](Cc2c[nH]c3ccccc23)NC(=O)[C@H](CC(=O)O)NC(=O)[C@H](Cc2ccncc2)NC(=O)[C@H](Cc2ccc(OCC(=O)O)cc2)NC(=O)CSC[C@@H](C(=O)Nc2ccc(C(=O)NCCCCCCCCCCC(=O)O)cc2)NC(=O)[C@H](CCCN)NC(=O)[C@H](C(C)C)NC(=O)[C@H](CC2CCCCC2)NC(=O)[C@H](CCN)NC(=O)[C@@H](CC(C)C)NC(=O)[C@H](CCCN)NC(=O)[C@H](C(C)C)NC(=O)[C@H](Cc2ccc(-c3ccccc3)cc2)NC1=O` [Compound 1226] ({CH2CO}-Y(Carboxymethyl)[4Pal]DWL[Bip]V[Orn][dL][Dab][Cha]V[Orn]C[4Abz][Aun]-OH; thioether N-14), the IC50 was found to be 277 nM.

Consider `CC(C)C[C@@H]1NC(=O)[C@H](Cc2c[nH]c3ccccc23)NC(=O)[C@H](CC(=O)O)NC(=O)[C@H](Cc2ccncc2)NC(=O)[C@H](Cc2ccc(OCC(=O)O)cc2)NC(=O)CSC[C@@H](C(=O)N2CCOC[C@H]2C(=O)NCCCCCCCCCCC(=O)O)NC(=O)[C@H](CCCNC(N)=O)NC(=O)[C@H](C(C)C)NC(=O)[C@H](CC2CCCCC2)NC(=O)[C@H](CCN)NC(=O)[C@@H](CC(C)C)NC(=O)[C@H](CCCN)NC(=O)[C@H](C(C)C)NC(=O)[C@H](Cc2ccc(-c3ccccc3)cc2)NC1=O` [Compound 1227] ({CH2CO}-Y(Carboxymethyl)[4Pal]DWL[Bip]V[Orn][dL][Dab][Cha]V[Cit]C[Morpholine(3S-CO)][Aun]-OH; thioether N-14), for which the IC50 stood at 304 nM.

For `CC(C)C[C@@H]1NC(=O)[C@H](Cc2c[nH]c3ccccc23)NC(=O)[C@H](CC(=O)O)NC(=O)[C@H](Cc2ccncc2)NC(=O)[C@H](Cc2ccc(OCC(=O)O)cc2)NC(=O)CSC[C@@H](C(=O)Nc2cccc(C(=O)NCCCCCCCCCCC(=O)O)c2)NC(=O)[C@H](CCN)NC(=O)[C@H](C(C)C)NC(=O)[C@H](CC2CCCCC2)NC(=O)[C@H](CCN)NC(=O)[C@@H](CC(C)C)NC(=O)[C@H](CCCN)NC(=O)[C@H](C(C)C)NC(=O)[C@H](Cc2ccc(-c3ccccc3)cc2)NC1=O` [Compound 1228] ({CH2CO}-Y(Carboxymethyl)[4Pal]DWL[Bip]V[Orn][dL][Dab][Cha]V[Dab]C[3Abz][Aun]-OH; thioether N-14), the IC50 was 307 nM.

For the compound `CC(C)C[C@@H]1NC(=O)[C@H](Cc2c[nH]c3ccccc23)NC(=O)[C@H](CC(=O)O)NC(=O)[C@H](Cc2ccncc2)NC(=O)[C@H](Cc2ccc(OCC(=O)O)cc2)NC(=O)CSC[C@@H](C(=O)Nc2ccc(C(=O)NCCCCCCCCCCC(=O)O)cc2)NC(=O)[C@H](CCN)NC(=O)[C@H](C(C)C)NC(=O)[C@H](CC2CCCCC2)NC(=O)[C@H](CCN)NC(=O)[C@@H](CC(C)C)NC(=O)[C@H](CCCN)NC(=O)[C@H](C(C)C)NC(=O)[C@H](Cc2ccc(-c3ccccc3)cc2)NC1=O` [Compound 1229] ({CH2CO}-Y(Carboxymethyl)[4Pal]DWL[Bip]V[Orn][dL][Dab][Cha]V[Dab]C[4Abz][Aun]-OH; thioether N-14), the IC50 was 518 nM.

In the case of `CC(C)C[C@@H]1NC(=O)[C@H](Cc2c[nH]c3ccccc23)NC(=O)[C@H](CC(=O)O)NC(=O)[C@H](Cc2ccc(C(=O)O)cc2)NC(=O)[C@H](Cc2ccc(OCC(=O)O)cc2)NC(=O)CSC[C@@H](C(=O)N[C@@H](CN)C(=O)NCCCCCCCCCCC(=O)O)NC(=O)[C@H](CCCNC(N)=O)NC(=O)[C@H](C(C)C)NC(=O)[C@H](CC2CCCCC2)NC(=O)[C@H](CCN)NC(=O)[C@@H](CC(C)C)NC(=O)[C@H](CCCN)NC(=O)[C@H](Cc2ccc(O)cc2)NC(=O)[C@H](Cc2ccc(-c3ccccc3)cc2)NC1=O` [Compound 1233] ({CH2CO}-Y(Carboxymethyl)[Phe(4-COOH)]DWL[Bip]Y[Orn][dL][Dab][Cha]V[Cit]C[Dap][Aun]-OH; thioether N-14), the IC50 was 22.1 nM.

The assay is the same for the next values; noted with them: Jurkat hPD1-PDL1 IC50, Jurkat cell line over-expressing human PD-1; PE-labeled PD-L1-Ig 20 nM final.
`CC(C)C[C@@H]1NC(=O)[C@H](Cc2c[nH]c3ccccc23)NC(=O)[C@H](CC(=O)O)NC(=O)[C@H](Cc2ccncc2)NC(=O)[C@H](Cc2ccc(OCC(=O)O)cc2)NC(=O)CSC[C@@H](C(=O)Nc2ccc(C(=O)NCCCCCCCCCCC(=O)O)cc2)NC(=O)[C@H](CCCNC(=N)N)NC(=O)[C@H](C(C)C)NC(=O)[C@H](CC2CCCCC2)NC(=O)[C@H](CCN)NC(=O)[C@@H](CC(C)C)NC(=O)[C@H](CCCN)NC(=O)[C@H](C(C)C)NC(=O)[C@H](Cc2ccc(-c3ccccc3)cc2)NC1=O` [Compound 1230] ({CH2CO}-Y(Carboxymethyl)[4Pal]DWL[Bip]V[Orn][dL][Dab][Cha]VRC[4Abz][Aun]-OH; thioether N-14) registered an IC50 of 537 nM.
